Where “and” joins values, the source holds several entries; their conditions need not be identical. Equal entries are not always repeated.

Test [1] can be described thus: Methyl mercaptan suppression by Group A and Group B materials alone and combined (synergistic or additive activity). Particulars: in ethanol, room temperature 2 hours; for methyl mercaptan suppression (%) A alone: Group A level 200 ppm; for methyl mercaptan suppression (%) B alone: Group B level 400 ppm. How it is done: The synergistic or additive activity of methyl mercaptan inhibition of malodor eliminating materials was tested. 5-40 μl of 1% (w/v) test OE materials in ethanol was placed into a 2 ml GC vial. Ethanol was added into this vial up to 1000 μl. 2 μl of 0.5%(w/v) of sodium methoxide in deionized water was added into the resulting vial, left to sit at room temperature for 2 hours, and analyzed using Multipurpose sampler-GC-PFPD. As a control, ethanol was added instead of test OE materials. Malodor suppression was calculated as described in Example 1 above.

Test [2] can be described thus: Methyl mercaptan chemical suppression by Group A and Group B compounds (GC-PFPD). Particulars: test material 200 ppm, malodor material 10 ppm, room temperature 2 hours, ethanol/deionized water. As for the experimental part:
2 μl of 0.5%(w/v) of sodium methoxide in deionized water, 20 μl of 1% (w/v) test malodor eliminating material in ethanol, 80 μl of ethanol, and 900 μl of deionized water were added into a 2 ml GC vial, left to sit at room temperature for 2 hours, and analyzed using Multipurpose sampler-GC-PFPD (Gas Chromatography-Pulsed Flame Photometric Detector) (GC-PFPD)MPS2 (Gerstel)—GC; 6890N (Agilent)—PFPD; model 5380 (OI Analytical). As a control, ethanol was added instead of test malodor eliminating materials. The final concentration of test OE material and malodor material are 200 ppm and 10 ppmm, respectively. Malodor suppression was calculated as follows: Malodor Suppression (%)=(GC area of control sample−GC area of test_sample)/GC area of control sample×100

A short description of test [3]: Suppression of methyl mercaptan (Example 12, GC-PFPD). Particulars: test material 0.2%, malodor material 10 ppm, room temperature 2 hours, triplicate. How it is done:
100 μl of 0.01%(w/v) of test malodor material in ethanol, 2 μl of neat flavor oil and 900 μl of deionized water were added into a 4 ml vial and left to sit at room temperature for 2 hours. As a control, ethanol was added instead of the malodor reducing compound. The final concentration of test material and malodor material are 0.2% and 10 ppmm, respectively. 3 ml of ethanol was added into the resulting vial and the thiol level was analyzed using GC-PFPD as described above. Each material was tested in triplicate. Malodor suppression was calculated as described in the example 1 above.

A short description of test [4]: Furfuryl mercaptan chemical suppression by malodor eliminating materials (GC-PFPD). Particulars: OE material 0.2%, malodor material 10 ppm, room temperature 2 hours, triplicate. How it is done: (§1) The selected OE materials were tested for propyl, allyl, and furfuryl mercaptan suppression. 100 μl of 0.01%(w/v) of test malodor material in ethanol, 2 μl of neat flavor oil and 900 μl of deionized water were added into a 4 ml vial and left to sit at room temperature for 2 hours. As a control, ethanol was added instead of test flavor materials. The final concentration of test OE material and malodor material are 0.2% and 10 ppm, respectively. 3 ml of ethanol was added into the resulting vial and the thiol level was analyzed using GC-PFPD. Each material was tested in triplicate. Malodor suppression was calculated as described in the example 1 above.

Test [5] can be described thus: Propyl mercaptan chemical suppression by malodor eliminating materials (GC-PFPD). Particulars: OE material 0.2%, malodor material 10 ppm, room temperature 2 hours, triplicate. How it is done:
as §1

The nature of test [6]: Allyl mercaptan chemical suppression by malodor eliminating materials (GC-PFPD). Particulars: OE material 0.2%, malodor material 10 ppm, room temperature 2 hours, triplicate. As for the experimental part:
as §1

As to `CC(=O)c1ccccc1` [ACETOPHENONE, acetophenone], in test [1], the “methyl mercaptan suppression (%) A alone” value was 4%.

In the case of `CCCCC/C(C=O)=C/c1ccccc1` [AMYL CINN ALD, ALPHA], the “methyl mercaptan suppression (%) A alone” value in test [1] is −3% and −1%. The “methyl mercaptan suppression (%)” value in test [2] is given as 5%.

Regarding `CC=Cc1ccc(OC)cc1` [ANETHOL NF, anethol], in test [3], the “methyl mercaptan suppression (%)” value was below 20%.

In the case of `C=C(C)[C@@H]1CC=C(C)C(=O)C1` [CARVONE-L, carvone-l], in test [1], the “methyl mercaptan suppression (%) A alone” value is 12%. The figures for the “methyl mercaptan suppression (%)” value in test [2] and in test [3] were 14% and 60%, respectively. In addition, in test [4], the “Malodor reduction (%) furfuryl mercaptan” value was found to be 27%. In addition, the “Malodor reduction (%) propyl mercaptan” value in test [5] is recorded as below 20%. For the same compound, in test [6], the “Malodor reduction (%) allyl mercaptan” value is listed as below 20%.

In the case of `O=C/C=C/c1ccccc1` [CINN ALD, cinnamic aldehyde], the “methyl mercaptan suppression (%)” value in test [2] is recorded as 33%; in test [3], 26%. Also, in test [4], the “Malodor reduction (%) furfuryl mercaptan” value was determined as 27%. Moreover, the “Malodor reduction (%) propyl mercaptan” value in test [5] is listed as 26%. The “Malodor reduction (%) allyl mercaptan” value in test [6] is listed as below 20%.

Consider `CC(C)=CCCC(C)=CC=O` [CITRAL SYN REFINED (FDO), CITRAL], for which the “methyl mercaptan suppression (%) A alone” value in test [1] was 1% and 0%. Also, the “methyl mercaptan suppression (%)” value in test [2] was 25%.

`CC(C)c1ccc(C=O)cc1` [CUMIN ALD, cumin aldehyde]: in test [1], the “methyl mercaptan suppression (%) A alone” value is reported as −42%.

Take `O=C1CCCCCCCCCCCCCCO1` [CYCLOPENTADECANOLIDE, cyclopentadecanolide]: in test [3], the “methyl mercaptan suppression (%)” value is below 20%.

Turning to `CCCCCC1CCCC(=O)O1` (stereo not drawn) [DECALACTONE DELTA], in test [3], the “methyl mercaptan suppression (%)” value is below 20%.

Turning to `CCCCCCC/C=C/C=O` [DECENAL, TRANS-2,], the “methyl mercaptan suppression (%)” value in test [2] came to 90%.

In the case of `CCCCCCCC1CCCC(=O)O1` (stereo not drawn) [DODECALACTONE DELTA, dodecalactone delta], the “methyl mercaptan suppression (%)” value in test [3] is on record as below 20%.

Take `CCCCCCCCC/C=C/C=O` [DODECENAL, TRANS-2,]: the “methyl mercaptan suppression (%)” value in test [2] came out at 53%.

Take `CCOC(=O)C=Cc1ccccc1` [ETH CINNNAMTE, ethyl cinnamate]: the “methyl mercaptan suppression (%) A alone” value in test [1] was 12% and 8%. For the same compound, the “methyl mercaptan suppression (%)” value in test [2] is recorded as 50%.

Take `CCOC(=O)C(C)CC` (stereo not drawn) [ETHYL 2-METHYLBUTYRATE, ethyl 2-methylbutyrate]: in test [3], the “methyl mercaptan suppression (%)” value is recorded as below 20%.

For the compound `CCOC(C)=O` [ETHYL ACETATE, ethyl acetate], the “methyl mercaptan suppression (%)” value in test [3] is below 20%.

In the case of `CCCC(=O)OCC` [ETHYL BUTYRATE, ethyl butyrate], the “methyl mercaptan suppression (%)” value in test [3] is below 20%.

As to `C/C=C/C(=O)OCC` [ETHYL-TRANS-2 BUTENOATE, ethyl-trans-2-butenoate], the “methyl mercaptan suppression (%) A alone” value in test [1] is 64%. For the same compound, the “methyl mercaptan suppression (%)” value in test [2] worked out at 73%.

On to `CC/C=C/C=C/C=O` [HEPTADIENAL, TRANS-2-TRANS-4], for which the “methyl mercaptan suppression (%)” value in test [2] is on record as 44%.

Consider `CCCC/C=C/C=O` [HEPTENAL-TRANS-2], for which the “methyl mercaptan suppression (%)” value in test [2] was found to be 82%.

In the case of `CCC/C=C/C=O` [HEXENAL, TRANS-2,, trans-2-hexenal], in test [1] (TRANS-2), the “methyl mercaptan suppression (%) A alone” value was determined as 33%. For the same compound, in test [2], the “methyl mercaptan suppression (%)” value is 82%.

Consider `CCC/C=C/CO` [HEXENOL, TRANS-2-, trans-2-hexenol], for which, in test [2], the “methyl mercaptan suppression (%)” value is 29%.

For `CC/C=C\CCOC(=O)CCC` [HEXENYL BUTY, CIS-3,], the “methyl mercaptan suppression (%)” value in test [2] is 22%.

Take `CC/C=C\CCOC(=O)CC(C)C` [HEXENYL ISO VAL, CIS-3,]: the “methyl mercaptan suppression (%)” value in test [2] is reported as 24%.

Consider `CC/C=C\CCOC(=O)CC` [HEXENYL PROP, CIS-3,], for which the “methyl mercaptan suppression (%)” value in test [2] was 32%.

`CCC/C=C/COC(C)=O` [HEXENYL-TRANS-2 ACETATE]: the “methyl mercaptan suppression (%)” value in test [2] is recorded as 35%.

On to `CC(=O)/C=C/C1C(C)=CCCC1(C)C` (stereo not drawn) [IONONE-ALPHA, ionone alpha], for which the figures for the “methyl mercaptan suppression (%)” value in test [2] and in test [3] were 14% and 50%, respectively. In addition, the “Malodor reduction (%) furfuryl mercaptan” value in test [4] is reported as 46%. Further, the “Malodor reduction (%) propyl mercaptan” value in test [5] is recorded as below 20%. Also, in test [6], the “Malodor reduction (%) allyl mercaptan” value is reported as 43%.

For `CC(C)CCOC(=O)C=Cc1ccccc1` [ISOAMYL CINNAMATE], the “methyl mercaptan suppression (%)” value in test [2] is listed as 10%.

Consider `CC=Cc1ccc(O)c(OC)c1` [ISOEUGENOL, isoeugenol], for which the “methyl mercaptan suppression (%)” value in test [2] is recorded as 15%.

Take `CC1=CC(=O)CC(C)(C)C1` [ISOPHORONE]: the “methyl mercaptan suppression (%)” value in test [2] came to 31%.

For the compound `CC(C)OC(=O)C=Cc1ccccc1` [ISOPROPYL CINNAMATE], the “methyl mercaptan suppression (%)” value in test [2] is listed as 21%.

Take `CC/C=C\CC1=C(C)CCC1=O` [JASMONE, CIS]: the “methyl mercaptan suppression (%)” value in test [2] came out at 32%.

On to `CC(C)=CCCC(C)C=O` (stereo not drawn) [MELONAL], for which, in test [3], the “methyl mercaptan suppression (%)” value is below 20%.

With `CC1CCC(C(C)C)C(O)C1` (stereo not drawn) [MENTHOL NATURAL, menthol], the “methyl mercaptan suppression (%)” value in test [3] is on record as below 20%.

Regarding `CC(=O)OC1CC(C)CCC1C(C)C` (stereo not drawn) [MENTHYL ACETATE], the “methyl mercaptan suppression (%)” value in test [3] is reported as below 20%.

On to `CC(C)CC=C(C=O)c1ccccc1` [METH 2-PHEN 2-HEXENAL, 5,], for which the “methyl mercaptan suppression (%)” value in test [2] is 59%.

Consider `COC(=O)C=Cc1ccccc1` [METH CINNAMATE, methyl cinnamate], for which, in test [2], the “methyl mercaptan suppression (%)” value amounted to 36%.

On to `CC(=O)/C=C/C=C(C)C` [METHYL HEPTADIENONE, methyl heptadienone], for which the “methyl mercaptan suppression (%) A alone” value in test [1] was 12% and 6% and 8% and 15%.

`CCCCCCCC(C)=O` [METHYL HEPTYL KETONE]: the “methyl mercaptan suppression (%)” value in test [3] is below 20%.

`COC(=O)c1ccccc1O` [METHYL SALICYLATE EXT PURE, METHYL SALICYLATE]: the “methyl mercaptan suppression (%)” value in test [3] is recorded as below 20%.

As to `CCCCCC=CCC(=O)OC` [METHYL-3 -NONENOATE, METHYL-3-NONENOATE], in test [1], the “methyl mercaptan suppression (%) A alone” value was 7%. For the same compound, the “methyl mercaptan suppression (%)” value in test [2] came to 36%.

Turning to `CC/C=C\CC/C=C/C=O` [NONADIEN-1-AL, TRANS-2, CIS-6,], the “methyl mercaptan suppression (%)” value in test [2] came to 74%.

With `CCCC/C=C/C=C/C=O` [NONADIENAL-TRANS-2-TRANS-4, trans-2-trans-4-nonadien-1-al], the “methyl mercaptan suppression (%)” value in test [2] was 42%.

As to `CCCCCC/C=C/C=O` [NONENAL, TRANS-2,], the “methyl mercaptan suppression (%)” value in test [2] amounted to 86%.

For `CC/C=C\CCCCCO` [NONENOL, CIS 6], the “methyl mercaptan suppression (%)” value in test [2] was 22%.

Turning to `C=CC(O)CCCCC` (stereo not drawn) [OCTEN-1 3-OL], the “methyl mercaptan suppression (%)” value in test [2] was 19%.

For `CCCCC/C=C/C=O` [OCTENAL TRANS-2], the “methyl mercaptan suppression (%)” value in test [2] was determined as 82%.

With `C=C(C)C1CC=C(C=O)CC1` (stereo not drawn) [PERILLA ALD], the “methyl mercaptan suppression (%) A alone” value in test [1] turned out to be 16%. The “methyl mercaptan suppression (%)” value in test [2] turned out to be 12%.

Regarding `C/C=C(\C)C(=O)OCCc1ccccc1` [PHEN ETH TIGLATE], the “methyl mercaptan suppression (%) A alone” value in test [1] is 4%.

As for `OCCc1ccccc1` [PHENYL ETHYL ALCOHOL-BETA, phenethyl alcohol beta], the “methyl mercaptan suppression (%)” value in test [3] was below 20%.

As to `CCC(=O)OCCc1ccccc1` [PHENYLETHYL PROPIONATE, phenyl ethyl propionate], the “methyl mercaptan suppression (%)” value in test [3] is recorded as below 20%.

Consider `CC(O)CO` (stereo not drawn) [PROPYLENE GLYCOL (SOLVENT), propylene glycol], for which the “methyl mercaptan suppression (%) B alone” value in test [1] is recorded as −5%.

Regarding `Cc1ccc(C(C)C)c(O)c1` [THYMOL, thymol], the “methyl mercaptan suppression (%) B alone” value in test [1] is reported as 0%.

Regarding ISO JASMONE, the “methyl mercaptan suppression (%)” value in test [2] came to 31%.

Regarding damascone beta [DAMASCONE, BETA], the “methyl mercaptan suppression (%)” value in test [2] is listed as 99%; in test [3], 74%. Further, in test [4], the “Malodor reduction (%) furfuryl mercaptan” value is given as 47%. The “Malodor reduction (%) propyl mercaptan” value in test [5] was found to be 23%. Also, in test [6], the “Malodor reduction (%) allyl mercaptan” value stood at 85%.

These data come from patent publication US9351944B1, “Malodor eliminating compositions” (TAKASAGO INTERNATIONAL CORPORATION, priority 2008, dated 2016).
